Assay results: patent US20080076664A1, “Fungicidal Compositions” (priority 2004, published 2008)
Several values for one entry are separate records, joined by “and”; a condition that tells them apart may be missing. Identical values can stand only once.

Tests used:
[1] = system: Alternaria solani; assay: Fungal growth assay, control of Alternaria solani (Example B-4 a); format: cell-based
Excerpt: (§1) The action to be expected E for a given active ingredient combination obeys the so-called COLBY formula and can be calculated as follows (COLBY, S. R. “Calculating synergistic and antagonistic responses of herbicide combination”. Weeds, Vol. 15, pages 20-22; 1967):
(§2) According to COLBY, the expected (additive) action of active ingredients A)+B) using p+q ppm of active ingredient is
(§3) If the action actually observed (O) is greater than the expected action (E), then the action of the combination is super-additive, i.e. there is a synergistic effect. In mathematical terms the synergism factor SF corresponds to O/E. In the agricultural practice an SF of ≧1.2 indicates significant improvement over the purely complementary addition of activities (expected activity), while an SF of ≦0.9 in the practical application routine signals a loss of activity compared to the expected activity.
(§4) Conidia—harvested from a freshly grown colony—of the fungus were directly mixed into nutrient broth (PDB potato dextrose broth). After placing a (DMSO) solution of the test compounds into a microtiter plate (96-well format) the nutrient broth containing the fungal spores was added. […] The fungicide interactions in the combinations are calculated according to COLBY method.

[2] = system: Leptosphaeria nodorum; assay: Fungal growth assay, control of Leptosphaeria nodorum (Example B-8); format: cell-based
Excerpt: as §1, §2, §3
Action Against Leptosphaeria nodorum (Glume Blotch)—Fungal Growth Assay
as §4, with “Conidia of” for “Conidia—harvested from a freshly grown colony—of”, “fungus from cryogenic storage” for “fungus”

[3] = component B) alone, 0.002 ppm [mg/L]
[4] = component B) alone, 0.007 ppm [mg/L]
[5] = component B) alone, 0.022 ppm [mg/L]
[6] = component B) alone, 0.067 ppm [mg/L]
[7] = component B) alone, 0.600 ppm [mg/L]
[8] = Cpd Ia alone, 0.0001 ppm [mg/L]
[9] = Cpd Ia alone, 0.0003 ppm [mg/L]
[10] = Cpd Ia alone, 0.0074 ppm [mg/L]

| SMILES | Observed control in % (% Cobs) [1, 3] | Observed control in % (% Cobs) [1, 4] | Observed control in % (% Cobs) [1, 5] | Observed control in % (% Cobs) [1, 6] | Observed control in % (% Cobs) [2, 3] | Observed control in % (% Cobs) [2, 6] | Observed control in % (% Cobs) [1, 7] | Observed control in % (% Cobs) [2, 4] | Observed control in % (% Cobs) [2, 5] | further results |
| --- | --- | --- | --- | --- | --- | --- | --- | --- | --- | --- |
| N#Cc1c[nH]cc1-c1cccc2c1OC(F)(F)O2 [Fludioxonil] | 0% | 0% | 0% | 25% | 7% | 9% |  |  |  |  |
| CC(Cc1ccc(C(C)(C)C)cc1)CN1CCCCC1 (stereo not drawn) [Fenpropidin] | 0% |  |  | 0% |  |  | 0% | 4% | 0% |  |
| N#Cc1c(Cl)c(Cl)c(Cl)c(C#N)c1Cl [Chlorotalonil, Chlorothalonil] | 9% |  |  |  | 1% | 6% | 6% | 0% | 0% |  |
| Cc1cc(C2CC2)nc(Nc2ccccc2)n1 [Cyprodinil] | 3% | 0% | 0% | 30% |  |  |  |  |  |  |
| CCCC1COC(Cn2cncn2)(c2ccc(Cl)cc2Cl)O1 (stereo not drawn) [Propiconazole] |  | 0% |  |  | 12% |  |  |  | 11% |  |
| CC(C1CC1)C(O)(Cn1cncn1)c1ccc(Cl)cc1 (stereo not drawn) [Cyproconazole] | 3% | 0% |  |  | 3% | 4% | 15% | 0% |  |  |
| CO/C=C(/C(=O)OC)c1ccccc1Oc1cc(Oc2ccccc2C#N)ncn1 [Azoxystrobin] |  |  | 0% | 31% | 5% |  |  | 14% |  |  |
| Cn1cc(C(=O)Nc2ccccc2-c2ccc(C#CC(C)(C)C)cc2)c(C(F)F)n1 [Cpd Ia] |  |  |  |  |  |  |  |  |  | Observed control in % (% Cobs) [1, 8]: 6% and 0%; Observed control in % (% Cobs) [1, 9]: 6% and 0% and 4%; Observed control in % (% Cobs) ([1]; Cpd Ia alone, 0.0008 ppm [mg/L]): 0%; Observed control in % (% Cobs) [1, 10]: 40% and 46% and 27%; Observed control in % (% Cobs) ([1]; Cpd Ia alone, 0.0667 ppm [mg/L]): 50% and 60%; Observed control in % (% Cobs) [2, 8]: 0% and 2%; Observed control in % (% Cobs) [2, 9]: 0%; Observed control in % (% Cobs) ([2]; Cpd Ia alone, 0.0025 ppm [mg/L]): 0%; Observed control in % (% Cobs) [2, 10]: 0%; Observed control in % (% Cobs) ([2]; Cpd Ia alone, 0.0222 ppm [mg/L]): 9% and 0% and 5% and 6%; Observed control in % (% Cobs) ([2]; Cpd Ia alone, 0.2000 ppm [mg/L]): 32% and 30% |
